Results: ChEMBL document CHEMBL4665755, “Discovery of a phenylpyrazole amide ROCK inhibitor as a tool molecule for in vivo studies” (Bioorg Med Chem Lett, 2020)
Each block holds one compound with its values, some of them ahead of it.

What was measured:
[1] = Metabolic stability in human liver microsomes assessed as parent compound remaining at 0.5 uM after 10 mins; assay type: ADME, Microsome; conditions: read-out: Stabilty
[2] = AUC in mouse at 10 mg/kg, po; assay type: ADME, organism-based; parameters: dose 10 mg/kg; conditions: in vivo
[3] = Cmax in mouse at 10 mg/kg, po; assay type: ADME, organism-based; parameters: route oral, dose 10 mg/kg; conditions: in vivo
[4] = Permeability of the compound at pH 5.5 by PAMPA; assay type: ADME; conditions: read-out: permeability
[5] = Permeability of the compound at pH 7.4 by PAMPA; assay type: ADME; conditions: read-out: permeability
[6] = Metabolic stability in human liver microsomes assessed as half life; assay type: ADME, Microsome
[7] = AUC in mouse at 2 mg/kg, po; assay type: ADME, organism-based; parameters: dose 2 mg/kg; conditions: in vivo
[8] = Cmax in mouse at 2 mg/kg, po; assay type: ADME, organism-based; parameters: route oral, dose 2 mg/kg; conditions: in vivo

Compound: COc1cccc([C@@H](C)NC(=O)c2ccc(-c3cn[nH]c3)cc2OC)c1
remaining at 10 min, 0.5 µM [1]: 49%

Compound: COc1cccc([C@@H](C)NC(=O)c2ccc(-c3cn[nH]c3)c(C)c2)c1
AUC [2]: 35 µM·h
Cmax [3]: 12 µM
Papp [4]: 29 ×10⁻⁶ cm/s
Papp [5]: 20 ×10⁻⁶ cm/s
remaining at 10 min, 0.5 µM [1]: 74%

Compound: COc1cc(C(=O)N[C@H](CN)c2ccccc2)ccc1-c1cn[nH]c1
remaining at 10 min, 0.5 µM [1]: 93%

Compound: COc1cccc([C@@H](C)NC(=O)c2ccc(-c3cn[nH]c3)c(C#N)c2)c1
remaining at 10 min, 0.5 µM [1]: 67%

Compound: COc1cc(NC(=O)[C@H](N)CCc2ccccc2)ccc1-c1cn[nH]c1
AUC [2]: 140 µM·h
Cmax [3]: 28 µM
Papp [4]: 45 ×10⁻⁶ cm/s
Papp [5]: 74 ×10⁻⁶ cm/s
half-life [6]: 41 min

Compound: COc1cc(NC(=O)[C@@H](N)CCc2ccccc2)ccc1-c1cn[nH]c1
half-life [6]: 62 min

Compound: COc1cc(C(=O)N[C@@H](c2ccccc2F)C(C)(C)O)ccc1-c1cn[nH]c1
AUC [7]: 5 µM·h
Cmax [8]: 1.3 µM
Papp [4]: 52 ×10⁻⁶ cm/s
Papp [5]: 44 ×10⁻⁶ cm/s
remaining at 10 min, 0.5 µM [1]: 92%

Compound: COc1cc(NC(=O)[C@H](N)c2ccccc2Cl)ccc1-c1cn[nH]c1
half-life [6]: 20 min

Compound: COc1cc(C(=O)N[C@H](CO)c2c(F)cccc2F)ccc1-c1cn[nH]c1
remaining at 10 min, 0.5 µM [1]: 90%

Now from value to compound:

remaining at 10 min, 0.5 µM [1]: 32%
Compound: COc1cccc([C@@H](C)NC(=O)c2ccc(-c3cn[nH]c3)c(OC)c2)c1

remaining at 10 min, 0.5 µM [1]: 49%
Compound: COc1cccc(CNC(=O)c2ccc(-c3cn[nH]c3)c(OC)c2)c1

AUC [2]: 90 µM·h
Cmax [3]: 21 µM
Papp [4]: 10.5 ×10⁻⁶ cm/s
Papp [5]: 11 ×10⁻⁶ cm/s
remaining at 10 min, 0.5 µM [1]: 87%
Compound: COc1cc(C(=O)N[C@H](CO)c2ccccc2)ccc1-c1cn[nH]c1

remaining at 10 min, 0.5 µM [1]: 59%
Compound: COc1cccc([C@@H](C)NC(=O)c2ccc(-c3cn[nH]c3)c(Cl)c2)c1

remaining at 10 min, 0.5 µM [1]: 57%
Compound: COc1cccc([C@@H](C)NC(=O)c2ccc(-c3cn[nH]c3)c(OC)c2F)c1

remaining at 10 min, 0.5 µM [1]: 44%
Compound: COc1cccc([C@@H](C)NC(=O)c2ccc(-c3cn[nH]c3)c(C(F)(F)F)c2)c1

AUC [2]: 140 µM·h
Cmax [3]: 23 µM
Papp [4]: 61 ×10⁻⁶ cm/s
Papp [5]: 61 ×10⁻⁶ cm/s
remaining at 10 min, 0.5 µM [1]: 79%
Compound: COc1cc(C(=O)N[C@H](C)c2c(F)cccc2F)ccc1-c1cn[nH]c1

remaining at 10 min, 0.5 µM [1]: 73%
Compound: COc1cc(C(=O)N[C@H](C)c2ccccc2F)ccc1-c1cn[nH]c1

half-life [6]: 36 min
Compound: COc1cc(NC(=O)Cc2ccccc2Cl)ccc1-c1cn[nH]c1

half-life [6]: 31 min
Compound: COc1cc(NC(=O)[C@H](N)Cc2ccc(Cl)c(Cl)c2)ccc1-c1cn[nH]c1

half-life [6]: 15 min
Compound: COc1cc(NC(=O)[C@H](O)c2ccccc2Cl)ccc1-c1cn[nH]c1

remaining at 10 min, 0.5 µM [1]: 38%
Compound: CCc1cc(C(=O)N[C@H](C)c2cccc(OC)c2)ccc1-c1cn[nH]c1
